assay: Dissociation constant for binding to concanavalin A (ConA) was determined by fluorescence anisotropy assay

Structure (SMILES)	Kd
CN(C)c1cccc2c(S(=O)(=O)N(CCO[C@H]3O[C@@H](CO)[C@@H](O)[C@H](O)[C@H]3O)CC(=O)N(CCO[C@H]3O[C@@H](CO)[C@@H](O)[C@H](O)[C@H]3O)CC(=O)N(CCO[C@H]3O[C@@H](CO)[C@@H](O)[C@H](O)[C@H]3O)CC(N)=O)cccc12	9 uM l-1
CN(C)c1cccc2c(S(=O)(=O)N(CCO[C@H]3O[C@@H](CO)[C@@H](O)[C@H](O)[C@H]3O)CC(N)=O)cccc12	31 uM l-1
CN(C)c1cccc2c(S(=O)(=O)N(CCO[C@H]3O[C@@H](CO)[C@@H](O)[C@H](O)[C@H]3O)CC(=O)N(CCO[C@H]3O[C@@H](CO)[C@@H](O)[C@H](O)[C@H]3O)CC(N)=O)cccc12	18 uM l-1
CN(C)c1cccc2c(S(=O)(=O)N(CCO[C@H]3O[C@@H](CO)[C@@H](O)[C@H](O)[C@H]3O)CC(=O)N(CCO[C@H]3O[C@@H](CO)[C@@H](O)[C@H](O)[C@H]3O)CC(=O)N(CCO[C@H]3O[C@@H](CO)[C@@H](O)[C@H](O)[C@H]3O)CC(=O)N(CCO[C@H]3O[C@@H](CO)[C@@H](O)[C@H](O)[C@H]3O)CC(=O)N(CCO[C@H]3O[C@@H](CO)[C@@H](O)[C@H](O)[C@H]3O)CC(N)=O)cccc12	14 uM l-1
CO[C@H]1[C@@H](OCCN(CC(N)=O)S(=O)(=O)c2cccc3c(N(C)C)cccc23)O[C@@H](CO)[C@@H](O)[C@@H]1O	122 uM l-1
CN(C)c1cccc2c(S(=O)(=O)N(CCO[C@H]3O[C@@H](CO)[C@@H](O)[C@H](O)[C@H]3O)CC(=O)N(CCO[C@H]3O[C@@H](CO)[C@@H](O)[C@H](O)[C@H]3O)CC(=O)N(CCO[C@H]3O[C@@H](CO)[C@@H](O)[C@H](O)[C@H]3O)CC(=O)N(CCO[C@H]3O[C@@H](CO)[C@@H](O)[C@H](O)[C@H]3O)CC(=O)N(CCO[C@H]3O[C@@H](CO)[C@@H](O)[C@H](O)[C@H]3O)CC(=O)N(CCO[C@H]3O[C@@H](CO)[C@@H](O)[C@H](O)[C@H]3O)CC(N)=O)cccc12	12 uM l-1
CN(C)c1cccc2c(S(=O)(=O)N(CCO[C@H]3O[C@@H](CO)[C@@H](O)[C@H](O)[C@H]3O)CC(=O)N(CCO[C@H]3O[C@@H](CO)[C@@H](O)[C@H](O)[C@H]3O)CC(=O)N(CCO[C@H]3O[C@@H](CO)[C@@H](O)[C@H](O)[C@H]3O)CC(=O)N(CCO[C@H]3O[C@@H](CO)[C@@H](O)[C@H](O)[C@H]3O)CC(N)=O)cccc12	12 uM l-1
CN(C)c1cccc2c(S(=O)(=O)N(CCO[C@H]3O[C@@H](CO)[C@@H](O[C@H]4O[C@@H](CO)[C@@H](O[C@H]5O[C@@H](CO)[C@@H](O)[C@H](O)[C@H]5O)[C@H](O)[C@H]4O)[C@H](O)[C@H]3O)CC(N)=O)cccc12	2 uM l-1

Reference: ChEMBL document CHEMBL1130922, “Solid phase synthesis of oligomannopeptoids that mimic the concanavalin A-binding trimannoside” (Bioorg Med Chem Lett, 1998)
